Results as given in US20200405752A1, “ANTITUMOR AGENT, ANTITUMOR EFFECT ENHANCER, AND ANTITUMOR KIT” (FUJIFILM Corporation, priority 2018, published 2020).

Experiments:
[1] = system: human cholangiocarcinoma cell line TFK-1 (spheroid culture); test: Cell viability (CellTiter Glo) of TFK-1 in spheroid culture in combination with cisplatin; type: cell-based; conditions: for viability at 0.001 µM / viability at 0.003 µM / viability at 0.01 µM / viability at 0.03 µM / viability at 0.1 µM / viability at 0.3 µM / viability at 1 µM / viability at 3 µM / viability at 10 µM / IC50: Homo sapiens; for viability at 0.001 µM / viability at 0.003 µM / viability at 0.01 µM / viability at 0.03 µM / viability at 0.1 µM / viability at 0.3 µM / viability at 1 µM / viability at 3 µM / viability at 10 µM: 72 h, TFK-1 spheroid, with cisplatin 10 μmol/L, 3 days; for viability at 0.001 µM: test substance 1.0 nM; for viability at 0.003 µM: test substance 3.0 nM; for viability at 0.01 µM: test substance 10.0 nM; for viability at 0.03 µM: test substance 30.0 nM; for viability at 0.1 µM: test substance 100.0 nM; for viability at 0.3 µM: test substance 300.0 nM; for viability at 1 µM: test substance 1000.0 nM; for viability at 3 µM: test substance 3000.0 nM; for viability at 10 µM: test substance 10000.0 nM; for IC50 / CI: TFK-1 spheroid culture; for CI: combination with cisplatin
Source text: (§1) On the combinational effect of the embodiment of the invention, the results of evaluation using a combination index (CI) which is a quantitative index of the combinational effect are shown. The CI can be calculated by the following equation according to Cancer Research, 2010, Vol. 70, pp. 440 to 446.
(§2) That is, in a case where the drugs to be used in combination are drug 1 and drug 2, the CI at a certain drug concentration is
(§3) CI={(cell viability in case of using drug 1 and drug 2 in combination)/100}/{[(cell viability in case of using drug 1)/100]×[(cell viability in case of using drug 2)/100]}
Evaluation of Antitumor Activity Against Cholangiocarcinoma Cell Line TFK-1 by Combined Use of Cisplatin in Spheroid Culture
(§4) Gemcitabine, cisplatin, and methanesulfonate of Compound A were used as test substances.
(§5) Gemcitabine hydrochloride (manufactured by Plantex Co., Ltd.) dissolved in dimethyl sulfoxide (DMSO) was used as gemcitabine. Cisplatin (Cat. #039-20091, manufactured by Wako Pure Chemical Industries, Ltd.) dissolved in DMSO was used as cisplatin.
(§6) Human cholangiocarcinoma cell line TFK-1 cells were subcultured in RPMI-1640 medium supplemented with 10% serum (Cat. #10437-028, manufactured by Thermo Fisher Scientific Inc.). During this test, all cell cultures were carried out in a CO2 incubator (set to 37° C. and 5% CO2, saturated with water vapor). The culture was diluted with 10% serum-supplemented medium to a cell density of 5000 cells/well/100 μL, and seeded on an Ultra-Low Attachment 96-well plate (Cat. #7007, manufactured by Corning Incorporated). The cells were cultured for 4 days to form spheroids.
(§7) The methanesulfonate of Compound A and gemcitabine were dissolved in DMSO to prepare 10 mmol/L DMSO solutions thereof. The thus-prepared DMSO solutions were diluted sequentially with DMSO to prepare DMSO solutions having a final treatment concentration of 1000-fold dilution. Cisplatin was dissolved in DMSO to prepare a 100 mmol/L DMSO solution. The thus-prepared DMSO solution of cisplatin was diluted with DMSO to prepare a DMSO solution having a final treatment concentration of 5000-fold dilution. Further, the DMSO solution of cisplatin was diluted with 10% serum-supplemented medium to prepare a cisplatin-containing medium having a final treatment concentration of 10-fold dilution. The DMSO diluted solutions of Compound A and gemcitabine were diluted with the cisplatin-containing medium to prepare treatment liquids having a final treatment concentration of 10-fold dilution. Compound A and gemcitabine were used with a maximum concentration of 10 μmol/L at a common ratio of 1/3 and 9 concentrations in combination with cisplatin (10 μmol/L).
(§8) 10 μL of Compound A or gemcitabine diluted with the cisplatin-containing medium was added to each well. In addition, a group in which only a solvent containing no drug was added to wells in which cells were seeded (positive control), and a group in which only a solvent containing no drug was added to wells containing only a medium (negative control) were provided. All groups were set to n=3 well.
(§9) The cells were cultured for 3 days after the addition of the drug, and the cell viability was evaluated using a CellTiter Glo (registered trademark) Reagent (Cat. #G7570, manufactured by Promega Corporation) with the intracellular ATP level as an index. The concentration that inhibits cell viability by 50% (IC50 value) was calculated using XLFit software Ver.3 (registered trademark, manufactured by CTC Laboratory Systems Corporation).
(§10) The cell viability of each well was determined with the luminescence signal level of the negative control being 0% cell viability and the luminescence signal level of the positive control being 100% cell viability. The average value and standard deviation of the cell viability of each treatment group were calculated to prepare Table 9.

[2] = system: human breast cancer cell line HCC1954 (spheroid culture); test: Cell viability (CellTiter Glo) of HCC1954 in spheroid culture in combination with cisplatin; type: cell-based; conditions: for CI / IC50: HCC1954 spheroid culture; for CI: combination with cisplatin; for viability at 0.001 µM / viability at 0.003 µM / viability at 0.01 µM / viability at 0.03 µM / viability at 0.1 µM / viability at 0.3 µM / viability at 1 µM / viability at 3 µM / viability at 10 µM / IC50: Homo sapiens; for viability at 0.001 µM / viability at 0.003 µM / viability at 0.01 µM / viability at 0.03 µM / viability at 0.1 µM / viability at 0.3 µM / viability at 1 µM / viability at 3 µM / viability at 10 µM: 72 h, HCC1954 spheroid, with cisplatin 10 μmol/L, 3 days; for viability at 0.001 µM: test substance 1.0 nM; for viability at 0.003 µM: test substance 3.0 nM; for viability at 0.01 µM: test substance 10.0 nM; for viability at 0.03 µM: test substance 30.0 nM; for viability at 0.1 µM: test substance 100.0 nM; for viability at 0.3 µM: test substance 300.0 nM; for viability at 1 µM: test substance 1000.0 nM; for viability at 3 µM: test substance 3000.0 nM; for viability at 10 µM: test substance 10000.0 nM; for IC50: in combination with cisplatin (10 μmol/L)
Source text: as §1, §2, §3
Evaluation of Antitumor Activity Against Breast Cancer-Derived Cell Line HCC1954 by Combined Use of Cisplatin in Spheroid Culture
as §4, §5
as §6, with “The human breast cancer” for “Human cholangiocarcinoma”, “HCC1954” for “TFK-1”
as §7, with “(10 μmol/L, 5” for “(10”
as §8, §9
as §10, with “11.” for “9.”

SMILES | viability at 0.001 µM [1] [%] | viability at 0.003 µM [1] [%] | viability at 0.01 µM [1] [%] | viability at 0.03 µM [1] [%] | viability at 0.1 µM [1] [%] | viability at 0.3 µM [1] [%] | viability at 1 µM [1] [%] | viability at 3 µM [1] [%] | viability at 10 µM [1] [%] | CI [1] | CI [2] | viability at 0.001 µM [2] [%] | viability at 0.003 µM [2] [%] | viability at 0.01 µM [2] [%] | viability at 0.03 µM [2] [%] | viability at 0.1 µM [2] [%] | viability at 0.3 µM [2] [%] | viability at 1 µM [2] [%] | viability at 3 µM [2] [%] | viability at 10 µM [2] [%] | other results
Nc1ccn([C@@H]2S[C@H](CO)[C@@H](O)[C@@H]2F)c(=O)n1 [Compound A, 1-(2-deoxy-2-fluoro-4-thio-β-D-arabinofuranosyl)cytosine] | 97 | 101 | 96 | 91 | 90 | 65 | 23 | 14 | 9 | 0.13 | 0.03 | 92 | 94 | 75 | 65 | 38 | 15 | 2 | 2 | 2 | IC50 ([1]; in combination with cisplatin (5 μmol/L)): 0.469 µM; IC50 [2]: 0.0494 µM
Nc1ccn([C@@H]2O[C@H](CO)[C@@H](O)C2(F)F)c(=O)n1 [Gemcitabine] | 97 | 97 | 97 | 89 | 90 | 83 | 83 | 77 | 66 | 0.78 | 0.60 | 96 | 100 | 101 | 97 | 88 | 73 | 60 | 52 | 50 | IC50 ([1]; in combination with cisplatin (10 μmol/L)): ≥ 10 µM; IC50 [2]: ≥ 10 µM
